Patent US20050228007A1, “Isoquinoline derivatives and methods of use thereof” (priority 2004, published 2005)
Where a name gives a salt, the structure may show the parent alone. Read-outs that look alike come from different tables or passages of the source.

Key:
[1] = tested on: streptozotocin (STZ) induced hyperglycemia; experiment: Single high-dose streptozotocin model of diabetes; assay type: in vivo, mice; details: 3 mg/kg i.p.; STZ 160 mg/kg; blood sugar 3 days later; STZ + vehicle 320 ± 13, basal 153 ± 21; 8l as mesylate salt
Experimental: PARS inhibitors and PARS deficiency are known to reduce the development of diabetes and the incidence of diabetic complications (Mabley et al., Br J. Pharmacol. 2001, 133(6):909-9; and Soriano et al., Nat Med. 2001, 7(1):108-13). […] Briefly, 160 mg/kg streptozotocin was injected to mice treated with vehicle or with illustrative Isoquinoline Derivatives intraperitoneally (3 mg/kg) and 3 days later blood sugar levels were determined using a blood glucose meter.

[2] = target: T1, PARS (Mus musculus, UniProt P11103); experiment: PARS activation in peroxynitrite-treated cultured macrophages (whole-cell 3H-NAD+ assay); assay type: cell-based; details: cultured murine macrophages
T1 construct: endogenous in cells; host or cells: RAW mouse macrophages
T1 sequence (P11103 whole entry): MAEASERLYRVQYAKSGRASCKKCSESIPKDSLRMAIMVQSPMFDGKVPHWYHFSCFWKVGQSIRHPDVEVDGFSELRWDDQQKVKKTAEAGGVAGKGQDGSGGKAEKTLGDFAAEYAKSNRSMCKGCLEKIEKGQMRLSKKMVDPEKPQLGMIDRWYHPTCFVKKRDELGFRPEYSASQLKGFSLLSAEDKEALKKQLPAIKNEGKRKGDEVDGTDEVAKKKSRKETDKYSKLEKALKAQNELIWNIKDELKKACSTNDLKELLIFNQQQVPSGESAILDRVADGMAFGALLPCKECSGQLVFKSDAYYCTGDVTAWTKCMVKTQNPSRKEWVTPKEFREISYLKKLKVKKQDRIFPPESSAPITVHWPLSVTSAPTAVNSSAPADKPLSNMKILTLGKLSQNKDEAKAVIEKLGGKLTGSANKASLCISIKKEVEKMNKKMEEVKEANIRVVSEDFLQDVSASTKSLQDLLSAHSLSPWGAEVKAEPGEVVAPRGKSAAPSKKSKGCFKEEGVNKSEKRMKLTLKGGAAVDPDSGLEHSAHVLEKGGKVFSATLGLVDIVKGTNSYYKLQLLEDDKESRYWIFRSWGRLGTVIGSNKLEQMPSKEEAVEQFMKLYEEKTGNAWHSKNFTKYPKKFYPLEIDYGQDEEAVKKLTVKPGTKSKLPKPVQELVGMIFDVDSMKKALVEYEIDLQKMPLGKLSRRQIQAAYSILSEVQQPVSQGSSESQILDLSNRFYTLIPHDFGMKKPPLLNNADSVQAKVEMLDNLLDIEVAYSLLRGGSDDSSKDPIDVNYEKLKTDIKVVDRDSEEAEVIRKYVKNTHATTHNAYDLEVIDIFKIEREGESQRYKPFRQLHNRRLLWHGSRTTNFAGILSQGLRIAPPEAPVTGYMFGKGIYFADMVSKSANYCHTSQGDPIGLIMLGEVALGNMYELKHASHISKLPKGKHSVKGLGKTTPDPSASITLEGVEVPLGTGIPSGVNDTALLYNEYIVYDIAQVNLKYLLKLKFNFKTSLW
Experimental: Raw mouse macrophages were cultured in DMEM medium with high glucose and supplemented with 10% fetal bovine serum. Cells were used at 80% confluence in 12-well plates. Cells were pretreated with various concentrations (100 nM -1 µM) of an Isoquinoline Derivative for 10 min. Peroxynitrite, a prototypical oxidant which induces DNA single strand breakage, was used to induce PARS activation. Peroxynitrite was diluted in phosphate buffered saline (PBS) (pH 11.0) and added to the cells in a bolus of 50 μl. Cells were then incubated for 20 min. […] After the 20 min incubation, the cells were spun, the medium was aspirated and the cells were resuspended in 0.5 ml assay buffer (56 mM HEPES pH 7.5, 28 mM KCl, 28 mM NaCl, 2 mM MgCl2, 0.01% w/v digitonin and 0.125 μM NAD^+ and 0.5 μCi/ml ^3H-NAD^+). Following an incubation in assay buffer, (10 min at 37° C.), PARS activity was measured as follows: 200 μl ice cold 50% w/v TCA was added and the samples were incubated for 4 hours at 4° C. Samples were then spun (10 min @ 10,000 g) and pellets washed twice with ice cold 5% w/v TCA and solubilized overnight in 250 μl 2% w/v SDS/0.1 N NaOH at 37° C. The contents of the tubes were added to 6.5 ml ScintiSafe Plus scintillation liquid (Fisher Scientific) and radioactivity was determined using a liquid scintillation counter (Wallac, Gaithersburg, Md.).

[3] = tested on: TNF-alpha; experiment: LPS induced TNF production in mice; assay type: in vivo; design: unit not given here; details: LPS 10 mg/kg i.p., plasma at 90 minutes, vehicle 6994.0 ± 904.4, 8l as mesylate salt
[4] = tested on: CLP induced shock; experiment: Cecal ligation and puncture (CLP) induced shock mortality; assay type: in vivo; details: 3 mg/kg/day; over 24 h; untreated 100% death
[5] = tested on: Balb/c mice; experiment: LPS (endotoxin) induced mortality; assay type: in vivo; details: 3 mg/kg/day; 100 mg/kg LPS i.p.; over 24 h; untreated 50%
[6] = tested on: ischemic and reperfused gut; experiment: Mouse model of ischemic and reperfused gut
Experimental: In order to substantiate the efficacy of the Isoquinoline Derivatives in ischemia-reperfusion conditions, the effect of an illustrative Isoquinoline Derivative in a mouse model of ischemic and reperfused gut was tested. […] Following the end of the reperfusion, gut permeability was measured with the FD4 method in evened gut sacks (Liaudet et al., Shock 2000, 14(2): 134-41).

[7] = tested on: middle cerebral artery occlusion/reperfusion; experiment: Rat model of middle cerebral artery occlusion/reperfusion; assay type: in vivo; details: 3 mg/kg/day in 3 divided i.p. doses; 2 h occlusion, 24 h reperfusion; vs vehicle-treated controls
Experimental: Occlusion lasted for 2 hours, followed by reperfusion for 24 hours. Infarct size was quantified with tetrazolium staining. […] There was an approximately 80% reduction in the degree of cortical necrosis and neuronal death in the animals administered with 8l (mesylate salt), when compared to vehicle-treated controls.

[8] = tested on: thymocytes; details: peroxynitrite induced, control 98%
Source text: In addition in vitro studies in isolated thymocytes, cells were exposed to peroxynitrite or hydrogen peroxide (toxic oxidant species) to induce cytotoxicity.

CCN(CC)CCN(CCN(CC)CC)S(=O)(=O)c1ccc2c(c1)=Cc1c3c(c(=O)[nH]c1=2)=CC=CC3 [Compound 8p, 9-[N,N-di-(2-[N,N-diethylamino]ethyl)-aminosulphonyl]-5,6-dihydro-5-oxo-1H-indeno-[1,2-c]isoquinoline]
Glucose [1]: 264 ± 24 mg/dL | inhibition at 0.1 µM ([2]; 100 nM): 27% | inhibition at 0.3 µM ([2]; 300 nM): 45% | TNF ([3]; 0.1 mg/kg i.p. pretreatment): 4470.0 ± 184.4 | TNF ([3]; 1.0 mg/kg i.p. pretreatment): 5090.8 ± 203.7

O=c1[nH]c2c(c3ccccc13)Cc1cc(S(=O)(=O)NCCCN3CCOCC3)ccc1-2 [Compound 8l (mesylate salt), 9-[N-(3-[morpholino-4-yl]propyl)-aminosulphonyl]-5,6-dihydro-5-oxo-11H-indeno-[1,2c]isoquinoline]
mortality (death) in CLP induced shock [4]: 60% | endotoxin-induced mortality [5]: 10% | reduction of the increase in the permeability of the gut ([6]; 3 mg/kg i.v. 10 min prior to reperfusion, 45 min occlusion, 1 h reperfusion, FD4 method): approximately 73% | mortality ([6]; gut ischemia-reperfusion, over 12 hours, untreated 80%): 15% | reduction in the degree of cortical necrosis and neuronal death [7]: approximately 80%

O=c1[nH]c2c(c3ccccc13)Cc1cc(S(=O)(=O)NCCCN3CCOCC3)ccc1-2 [Compound 8l, 9-[N-(3-[morpholino-4-yl]propyl)-aminosulphonyl]-5,6-dihydro-5-oxo-11H-indeno-[1,2c]isoquinoline]
Glucose [1]: 244 ± 21 mg/dL | Cytotoxicity ([8]; 30 nM 8l (mesylate salt per title)): 74% | Cytotoxicity ([8]; 100 nM 8l (mesylate salt per title)): 39% | Cytotoxicity ([8]; 300 nM 8l (mesylate salt per title)): 2% | Cytotoxicity ([8]; 1 μM 8l (mesylate salt per title)): 0% | Cytotoxicity ([8]; 3 μM 8l (mesylate salt per title)): 0%

O=c1[nH]c2c(c3ccccc13)Cc1cc(S(=O)(=O)NCCN3CCOCC3)ccc1-2 [Compound 8j, 9-[N-(2-[morpholino-4-yl]ethyl)-aminosulphonyl]-5,6-dihydro-5-oxo-11H-indeno[1,2-c]isoquinoline]
Glucose [1]: 253 ± 24 mg/dL | % PARS inhibition at 100 nM ([2]; 100 nM): 34% | % PARS inhibition at 300 nM ([2]; 300 nM): 76% | TNF ([3]; 0.1 mg/kg i.p. pretreatment): 3831.6 ± 385.2 | TNF ([3]; 1.0 mg/kg i.p. pretreatment): 5038.8 ± 377.1
